In the supplement of paper PMC4862054:

Assays:
Assay in all cases: normalised response (% of control), CellTiter-Glo; higher = more viable cells (100 = DMSO, 0 = benzethonium chloride kill control)
Details in all cases: incubation time: 72 h
BT-474 = tested on: BT-474
Procedure, shortened: (§1)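 In 384-well plates holding compound at 5 concentrations in 10-fold steps over a 10,000-fold range specific to each compound, breast cancer cell lines were seeded as 20 µl suspension and incubated 72 h. CellTox Green fluorescence was measured at 485/520 nm, after which CellTiter-Glo luminescence was measured following 10 min at room temperature. Plate signals were normalised to 0.1 % DMSO (100) and a positive kill control (0), and each value is the normalised signal at a single concentration.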

BT-549 = tested on: BT-549
Procedure, shortened: as §1

CAL-120 = tested on: CAL-120
Procedure, shortened: as §1

CAL-148 = tested on: CAL-148
Procedure, shortened: as §1

CAL-51 = tested on: CAL-51
Procedure, shortened: as §1

CAL-85-1 = tested on: CAL-85-1
Procedure, shortened: as §1

DU-4475 = tested on: DU-4475
Procedure, shortened: as §1

HCC1143 = tested on: HCC1143
Procedure, shortened: as §1

HCC1599 = tested on: HCC1599
Procedure, shortened: as §1

HCC1937 = tested on: HCC1937
Procedure, shortened: as §1

HDQ-P1 = tested on: HDQ-P1
Procedure, shortened: as §1

Hs578T = tested on: Hs578T
Procedure, shortened: as §1

MCF-10A = tested on: MCF-10A
Procedure, shortened: as §1

MDA-MB-231 = tested on: MDA-MB-231
Procedure, shortened: as §1

MDA-MB-436 = tested on: MDA-MB-436
Procedure, shortened: as §1

MDA-MB-453 = tested on: MDA-MB-453
Procedure, shortened: as §1

MDA-MB-468 = tested on: MDA-MB-468
Procedure, shortened: as §1

MFM-223 = tested on: MFM-223
Procedure, shortened: as §1

SK-BR-3 = tested on: SK-BR-3
Procedure, shortened: as §1

Row | SMILES | normalised response (BT-474) | normalised response (BT-549) | normalised response (CAL-120) | normalised response (CAL-148) | normalised response (CAL-51) | normalised response (CAL-85-1) | normalised response (DU-4475) | normalised response (HCC1143) | normalised response (HCC1599) | normalised response (HCC1937) | normalised response (HDQ-P1) | normalised response (Hs578T) | normalised response (MCF-10A) | normalised response (MDA-MB-231) | normalised response (MDA-MB-436) | normalised response (MDA-MB-453) | normalised response (MDA-MB-468) | normalised response (MFM-223) | normalised response (SK-BR-3)
1 | COc1ccc(-c2cc3c(C)nc(N)nc3n([C@H]3CC[C@H](OCCO)CC3)c2=O)cn1 (1 nM) | 93.4% | 101% | 91.1% | 82.3% | 112% | 93.8% | 90.7% | 88.6% | 104% | 96.2% | 89.5% | 96.8% | 84.8% | 96.5% | 83.5% | 97.4% | 97% | 85.4% | 80.9%
2 | Cc1c(Cn2c(C)nc3c(C(=O)O)cc(N4CCOCC4)cc32)cccc1C(F)(F)F (1 nM) | 95.9% | 99.8% | 101% | 101% | 104% | 96.9% | 99.1% | 108% | 73.8% | 96% | 103% | 98.5% | 113% | 107% | 95.8% | 100% | 97.5% | 104% | 106%
3 | COc1ccc(-c2cc3c(C)nc(N)nc3n([C@H]3CC[C@H](OCCO)CC3)c2=O)cn1 (10 nM) | 88.8% | 89.6% | 92.3% | 87.8% | 82.8% | 90.8% | 93.2% | 96.5% | 89.3% | 86.2% | 87.2% | 94.8% | 79.8% | 90.7% | 85.4% | 83.5% | 82.6% | 88.9% | 67.2%
4 | Cc1c(Cn2c(C)nc3c(C(=O)O)cc(N4CCOCC4)cc32)cccc1C(F)(F)F (10 nM) | 101% | 94.8% | 99.5% | 112% | 79.4% | 99.5% | 102% | 104% | 118% | 98.8% | 101% | 105% | 118% | 107% | 98.9% | 100% | 105% | 104% | 100%
5 | CC/C(=C(\c1ccc(O)cc1)c1ccc(OCCN(C)C)cc1)c1ccccc1 [4-hydroxytamoxifen] (1 nM) | 101% | 107% | 98.6% | 102% | 91.2% | 100% | 99.4% | 95% | 96% | 99.6% | 97.7% | 108% | 101% | 96.6% | 103% | 107% | 98.8% | 101% | 107%
6 | CC/C(=C(\c1ccc(O)cc1)c1ccc(OCCN(C)C)cc1)c1ccccc1 [4-hydroxytamoxifen] (10 nM) | 96.7% | 97.1% | 98.3% | 110% | 88.4% | 97% | 103% | 101% | 93.5% | 97% | 95.7% | 102% | 109% | 96.8% | 90% | 112% | 108% | 104% | 98.3%
7 | CCCCC/C=C/C=C1/C(=O)C=C[C@@H]1C/C=C\CCCC(=O)O [15D-PGJ2] (0.08 nM) | 102% | 98.4% | 102% | 108% | 96.8% | 95.3% | 96.6% | 102% | 101% | 94.5% | 104% | 99.6% | 103% | 106% | 102% | 111% | 95.8% | 103% | 106%
8 | O=C(Nc1c[nH]nc1-c1nc2ccc(CN3CCOCC3)cc2[nH]1)NC1CC1 [AT9283] (1 nM) | 95.7% | 97.3% | 93.4% | 94.5% | 103% | 98.7% | 102% | 102% | 101% | 102% | 103% | 98.7% | 101% | 102% | 103% | 98.6% | 97.5% | 103% | 
9 | CCC/C=C/C=C/C(=O)O[C@H]1/C(=C/C(=O)OC)C[C@H]2C[C@H]([C@@H](C)O)OC(=O)C[C@H](O)C[C@@H]3C[C@H](OC(C)=O)C(C)(C)[C@](O)(C[C@@H]4C/C(=C/C(=O)OC)C[C@H](/C=C/C(C)(C)[C@]1(O)O2)O4)O3 [Bryostatin 1] (0.1 nM) | 103% | 95.8% | 91.1% | 115% | 119% | 98.2% | 97% | 101% | 116% | 99% | 91.5% | 95.5% | 109% | 103% | 107% | 97.7% | 94.3% | 105% | 
10 | CO[C@@H](C(=O)N1Cc2[nH]nc(NC(=O)c3ccc(N4CCN(C)CC4)cc3)c2C1)c1ccccc1 [Danusertib] (10 nM) | 102% | 99.7% | 93.4% | 95.7% | 113% | 94.9% | 102% | 95.7% | 98.1% | 93.8% | 97.9% | 99.2% | 103% | 96.6% | 105% | 103% | 87.1% | 103% | 
11 | Cc1nc(Nc2ncc(C(=O)Nc3c(C)cccc3Cl)s2)cc(N2CCN(CCO)CC2)n1 [Dasatinib] (1 nM) | 93.5% | 103% | 98.9% | 93.7% | 106% | 101% | 96.4% | 97.9% | 115% | 99.6% | 93.5% | 103% | 90% | 87.9% | 94.5% | 101% | 95.6% | 97.7% | 
12 | O=S(=O)(c1cccc2cnccc12)N1CCCNCC1 [Fasudil] (50 nM) | 97.8% | 101% | 94.3% | 102% | 117% | 97% | 104% | 102% | 98.5% | 99.4% | 96.6% | 94.9% | 104% | 99.9% | 106% | 104% | 101% | 99.3% | 
13 | Cc1cccc(-c2nn3c(c2-c2ccnc4ccc(C(N)=O)cc24)CCC3)n1 [Galunisertib] (1 nM) | 109% | 102% | 101% | 123% | 92.5% | 99.5% | 107% | 111% | 103% | 99% | 102% | 103% | 102% | 105% | 108% | 115% | 104% | 107% | 
14 | C[C@]12O[C@H](C[C@]1(O)CO)n1c3ccccc3c3c4c(c5c6ccccc6n2c5c31)CNC4=O [Lestaurtinib] (1 nM) | 104% | 97.3% | 93.9% | 100% | 133% | 104% | 97.7% | 102% | 90.8% | 98.9% | 95.4% | 101% | 96.6% | 99.8% | 100% | 94.3% | 102% | 101% | 
15 | Nc1ccccc1NC(=O)c1ccc(CNc2nccc(-c3cccnc3)n2)cc1 [Mocetinostat] (10 nM) | 98.4% | 98.3% | 97% | 98.1% | 129% | 95.7% | 105% | 97.6% | 94.3% | 104% | 110% | 103% | 106% | 103% | 99.1% | 105% | 101% | 100% | 
16 | Cc1ccc(Nc2nccc(N(C)c3ccc4c(C)n(C)nc4c3)n2)cc1S(N)(=O)=O [Pazopanib] (10 nM) | 98.2% | 93.9% | 91.9% | 104% | 82.8% | 100% | 107% | 102% | 100% | 100% | 97.2% | 94.8% | 97.2% | 98.2% | 107% | 109% | 104% | 98% | 
17 | CS(=O)(=O)N1CCN(Cc2cc3nc(-c4cccc5[nH]ncc45)nc(N4CCOCC4)c3s2)CC1 [Pictilisib] (1 nM) | 92.7% | 104% | 93.9% | 93.1% | 102% | 119% | 104% |  | 96.8% | 95% | 97.3% | 99.7% | 102% | 101% | 91.1% | 112% | 99.5% | 104% | 107%
18 | O=C(NC[C@H](O)CO)c1ccncc1Nc1ccc(I)cc1F [Pimasertib] (10 nM) | 102% | 91.4% | 103% | 90.8% | 124% | 87.8% | 83.9% | 94.2% | 105% | 102% | 81.1% | 92.2% | 66.6% | 97.6% | 107% | 99.7% | 91.9% | 99.2% | 
19 | c1cc(CN2CCCNCCNCCCNCC2)ccc1CN1CCCNCCNCCCNCC1 [Plerixafor] (10 nM) | 97.2% | 99.6% | 96.2% | 91.1% | 82.7% | 93.1% | 91.1% | 105% | 95.2% | 102% | 103% | 97.7% | 81.5% | 99% | 97.3% | 81.9% | 94.1% | 88.6% | 
20 | CNC(=O)c1cc(Oc2ccc(NC(=O)Nc3ccc(Cl)c(C(F)(F)F)c3)cc2)ccn1 [Sorafenib] (1 nM) | 104% | 94.7% | 98.2% | 114% | 119% | 104% | 103% | 100% | 109% | 101% | 102% | 102% | 105% | 102% | 96.4% | 93.8% | 106% | 107% | 
21 | CC[C@@]1(O)C(=O)OCc2c1cc1n(c2=O)Cc2cc3c(CN(C)C)c(O)ccc3nc2-1 [Topotecan] (10 nM) | 98.2% | 90.3% | 96.1% | 103% | 91.9% | 95.8% | 95.4% | 93.9% | 93.2% | 95.8% | 98.4% | 100% | 92.7% | 94.1% | 94.4% | 104% | 97.6% | 99.9% | 
